From patent US4393225A, “AI-77 Compounds and pharmaceutically acceptable salts thereof” (Asahi Kasei Kogyo Kabushiki Kaisha, priority 1979, dated 1983) come the findings set out here.

Each structure is given as a SMILES string.

One assay has as its system ulcer. Description: Anti-ulcer test (restraint and water immersion ulcer in rats, i.p.). The assay is classed as in vivo, Male Wistar rats. The conditions noted are these: Rattus norvegicus, ip, read-out: % Inhibition of Ulcer. Summed up:
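Male Wistar rats (~150 g), fasted 24 h, dosed i.p. with compound in physiological saline; 1 h later restrained and immersed to xiphisternum in 21 °C water for 6 h. Stomachs examined microscopically, ulcers scored 0–3, and percent inhibition calculated.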
`CC(C)CC(NC(=O)C(OC(=O)C(Cl)(Cl)Cl)C1OC(=O)CC1N)C1Cc2cccc(OC(=O)C(Cl)(Cl)Cl)c2C(=O)O1` (stereo not drawn) [IIIa-11-4]: the inhibition in vivo at 50 mg/kg stood at 56%. Take `CC(C)CC(NC(=O)C(O)C1OC(=O)CC1NCCCCBr)C1Cc2cccc(O)c2C(=O)O1` (stereo not drawn) [IIIa-18-26]: the inhibition in vivo at 50 mg/kg was 94%.

In the case of `CCNC1CC(=O)OC1C(OC(C)=O)C(=O)NC(CC(C)C)C1Cc2cccc(OC(C)=O)c2C(=O)O1` (stereo not drawn) [IIIa-20-1], the inhibition in vivo at 50 mg/kg is 56%. Turning to `CCNC(CC(N)=O)C(O)C(OC)C(=O)NC(CC(C)C)C1Cc2cccc(OCC)c2C(=O)O1` (stereo not drawn) [VII-16-1], the inhibition in vivo at 25 mg/kg came to 56%. Take `CSC(C)(C)CC(=O)NC1CC(=O)OC1C(O)C(=O)NC(CC(C)C)C1Cc2cccc(O)c2C(=O)O1` (stereo not drawn) [IIIa-1-82]: the inhibition in vivo at 50 mg/kg was found to be 66%.

Still in this assay, the particulars now being: Rattus norvegicus, ip; 25 mg/kg i.p.; read-out: % Inhibition of Ulcer.
With `CC(C)CCNC(=O)CC(N)C(O)C(O)C(=O)NC(CC(C)C)C1Cc2cccc(O)c2C(=O)O1` (stereo not drawn) [VII-1-5], the inhibition in vivo at 25 mg/kg is 100%. Consider `CCNC(CC(N)=O)C(O)C(O)C(=O)NC(CC(C)C)C1Cc2cccc(OC(=O)CC)c2C(=O)O1` (stereo not drawn) [VII-13-3], for which the inhibition in vivo at 25 mg/kg worked out at 83%. For the compound `CCNC(=O)CC(N)C(O)C(O)C(=O)NC(CC(C)C)C1Cc2cccc(O)c2C(=O)O1` (stereo not drawn) [VII-1-3], the inhibition in vivo at 25 mg/kg amounted to 100%.

As for `CCCCOC(C(=O)NC(CC(C)C)C1Cc2cccc(OC)c2C(=O)O1)C(O)C(CC(N)=O)NC` (stereo not drawn) [VII-25-1], the inhibition in vivo at 25 mg/kg turned out to be 66%. As for `CNC(CC(N)=O)C(O)C(O)C(=O)NC(CC(C)C)C1Cc2cccc(O)c2C(=O)O1` (stereo not drawn) [VII-19-1], the inhibition in vivo at 25 mg/kg amounted to 100%.

With `CC(C)CC(NC(=O)C(O)C(O)C(N)CC(N)=O)C1Cc2cccc(OC(=O)C(C)C)c2C(=O)O1` (stereo not drawn) [VII-4-2], the inhibition in vivo at 25 mg/kg was found to be 89%. On the same count and under the same terms, the figure for `CCOc1cccc2c1C(=O)OC(C(CC(C)C)NC(=O)C(OC(=O)C(C)C)C(O)C(CC(N)=O)NC)C2` (stereo not drawn) [VII-24-2] is 66%; for `CCCC(=O)Oc1cccc2c1C(=O)OC(C(CC(C)C)NC(=O)C(OCC)C(O)C(N)CC(N)=O)C2` (stereo not drawn) [VII-9-4] it is 78%; for `CCCCOc1cccc2c1C(=O)OC(C(CC(C)C)NC(=O)C(O)C(O)C(CC(=O)NCC)NC(C)=O)C2` (stereo not drawn) [VII-32-1] it is 66%.

Still in this assay, the particulars now being: Rattus norvegicus, ip; 50 mg/kg i.p.; read-out: % Inhibition of Ulcer.
Turning to `CCOc1cccc2c1C(=O)OC(C(CC(C)C)NC(=O)C(OCC)C1OC(=O)CC1NC(=O)CC(C)C)C2` (stereo not drawn) [IIIa-7-3], the inhibition in vivo at 50 mg/kg was 33%. Still for that read-out and setting: next, `CC(C)CC(NC(=O)C(O)C1OC(=O)CC1NC(=O)Cc1ccccc1)C1Cc2cccc(O)c2C(=O)O1` (stereo not drawn) [IIIa-1-20]: 66%; `CCCCNC1CC(=O)OC1C(OCCCC)C(=O)NC(CC(C)C)C1Cc2cccc(OC)c2C(=O)O1` (stereo not drawn) [IIIa-24-10]: 56%. In the case of `CCCCOc1cccc2c1C(=O)OC(C(CC(C)C)NC(=O)C(OC)C1OC(=O)CC1NC(C)=O)C2` (stereo not drawn) [IIIa-7-16], the inhibition in vivo at 50 mg/kg came out at 33%. In the case of `CC(C)CC(NC(=O)C(O)C1C=CC(=O)O1)C1Cc2cccc(OCCCl)c2C(=O)O1` (stereo not drawn) [IVa-4-6], the inhibition in vivo at 50 mg/kg was 44%.

In the case of `CCCCCOC(C)CC(=O)NC1CC(=O)OC1C(O)C(=O)NC(CC(C)C)C1Cc2cccc(OCC)c2C(=O)O1` (stereo not drawn) [IIIa-5-42], the inhibition in vivo at 50 mg/kg is 33%. Take `CCOc1cccc2c1C(=O)OC(C(CC(C)C)NC(=O)C(O)C1OC(=O)CC1NC(=O)CCC1CCCC1)C2` (stereo not drawn) [IIIa-5-61]: the inhibition in vivo at 50 mg/kg is 33%.

Regarding `COC(C(=O)NC(CC(C)C)C1Cc2cccc(OC(C)=O)c2C(=O)O1)C1OC(=O)CC1N` (stereo not drawn) [IIIa-17-1], the inhibition in vivo at 50 mg/kg was 56%. For the compound `CNC(=O)C=CC(O)C(O)C(=O)NC(CC(C)C)C1Cc2cccc(O)c2C(=O)O1` (stereo not drawn) [VIII-1-1], the inhibition in vivo at 50 mg/kg was 56%.

On to `CC(C)CC(NC(=N)C(O)C(O)C(N)CC(=O)O)C1Cc2cccc(OC(=O)C(C)C)c2C(=O)O1` (stereo not drawn) [Vb-4-1], for which the inhibition in vivo at 50 mg/kg is 78%. Take `CCOC(C(=N)NC(CC(C)C)C1Cc2cccc(O)c2C(=O)O1)C(O)C(N)CC(=O)O` (stereo not drawn) [Vb-8-3]: the inhibition in vivo at 50 mg/kg is 78%.

Regarding `CCCCCCCC/C=C\CCCCCCCC(=O)NC1CC(=O)OC1C(O)C(=O)NC(CC(C)C)C1Cc2cccc(O)c2C(=O)O1` (stereo not drawn) [IIIa-1-13], the inhibition in vivo at 50 mg/kg worked out at 44%. Same read-out and setting: the figure for `CCNC1CC(=O)OC1C(OCC)C(=O)NC(CC(C)C)C1Cc2cccc(OCC)c2C(=O)O1` (stereo not drawn) [IIIa-24-2] is 56%; for `CCCCOC(C(=O)NC(CC(C)C)C1Cc2cccc(O)c2C(=O)O1)C1OC(=O)CC1NC(C)=O` (stereo not drawn) [IIIa-8-1] it is 56%; for `CCOC(C(=O)NC(CC(C)C)C1Cc2cccc(O)c2C(=O)O1)C1OC(=O)CC1N` (stereo not drawn) [IIIa-16-7] it is 72%. Consider `CCCCCCCCC=CCCCCCCCC(=O)Oc1cccc2c1C(=O)OC(C(CC(C)C)NC(=O)C(O)C1C=CC(=O)O1)C2` (stereo not drawn) [IVa-3-12], for which the inhibition in vivo at 50 mg/kg was 33%. Same read-out and setting: next, `CCCCCCCCC=CCCCCCCCC(=O)OC(C(=O)NC(CC(C)C)C1Cc2cccc(OC(=O)CC)c2C(=O)O1)C1OC(=O)CC1N` (stereo not drawn) [IIIa-11-5]: 44%.

Turning to `CCN1CCCC(N=C(NC(CC(C)C)C2Cc3cccc(O)c3C(=O)O2)C(O)C(O)C(N)CC(=O)O)C1` (stereo not drawn) [Vb-1-43], the inhibition in vivo at 50 mg/kg stood at 83%. With `CCCCCCCCCCCCCCCCCC(=O)Oc1cccc2c1C(=O)OC(C(CC(C)C)NC(=N)C(O)C(O)C(N)CC(=O)O)C2` (stereo not drawn) [Vb-4-2], the inhibition in vivo at 50 mg/kg worked out at 56%.

Consider `COc1cccc2c1C(=O)OC(C(CC(C)C)NC(=O)C(O)C1OC(=O)CC1N)C2` (stereo not drawn) [IIIa-13-1], for which the inhibition in vivo at 50 mg/kg was found to be 100%. For `CC(=O)Oc1cccc2c1C(=O)OC(C(CC(C)C)NC(=O)C(OC(C)=O)C1OC(=O)CC1NC(=O)CC(C)C)C2` (stereo not drawn) [IIIa-3-3], the inhibition in vivo at 50 mg/kg was 33%.

`CCCC(=O)OC(C(=O)NC(CC(C)C)C1Cc2cccc(O)c2C(=O)O1)C1C=CC(=O)O1` (stereo not drawn) [IVa-1-3]: the inhibition in vivo at 50 mg/kg was found to be 44%. Take `CC(C)CC(NC(=O)C(O)C1OC(=O)CC1N)C1Cc2cccc(OCCc3ccc4ccccc4c3)c2C(=O)O1` (stereo not drawn) [IIIa-13-18]: the inhibition in vivo at 50 mg/kg was 72%.

Take `CC(=O)N1CCC(COc2cccc3c2C(=O)OC(C(CC(C)C)NC(=O)C(O)C2OC(=O)CC2N)C3)CC1` (stereo not drawn) [IIIa-13-16]: the inhibition in vivo at 50 mg/kg came to 89%. As to `CCC(=O)OC(C(=O)NC(CC(C)C)C1Cc2cccc(O)c2C(=O)O1)C1OC(=O)CC1NC(=O)C(Cl)(Cl)Cl` (stereo not drawn) [IIIa-2-12], the inhibition in vivo at 50 mg/kg stood at 44%.

`CCCC(=O)NC1CC(=O)OC1C(OC(=O)CCC)C(=O)NC(CC(C)C)C1Cc2cccc(O)c2C(=O)O1` (stereo not drawn) [IIIa-2-11]: the inhibition in vivo at 50 mg/kg was 33%. Same read-out and setting: the figure for `CC(C)CC(NC(=O)C(O)C1OC(=O)CC1NC(=O)c1ccc2ccccc2c1)C1Cc2cccc(O)c2C(=O)O1` (stereo not drawn) [IIIa-1-15] is 44%; for `COC(C)CC(=O)Oc1cccc2c1C(=O)OC(C(CC(C)C)NC(=N)C(O)C(O)C(N)CC(=O)O)C2` (stereo not drawn) [Vb-4-3] it is 66%. Still for that read-out and setting: next, `CCOc1cccc2c1C(=O)OC(C(CC(C)C)NC(=O)C(O)C1OC(=O)CC1NC(=O)C1CCCO1)C2` (stereo not drawn) [IIIa-5-23]: 44%; `CC(=O)Oc1cccc2c1C(=O)OC(C(CC(C)C)NC(=O)C(O)C1OC(=O)CC1NC(=O)C(C)C)C2` (stereo not drawn) [IIIa-4-2]: 44%.

With `CCOC(C(=N)NC(CC(C)C)C1Cc2cccc(OCCC(C)OC)c2C(=O)O1)C(O)C(N)CC(=O)O` (stereo not drawn) [Vb-9-3], the inhibition in vivo at 50 mg/kg turned out to be 66%. As to `CC(C)CC(NC(=O)C(O)C1OC(=O)CC1NC(=O)CCCC1CCCCC1)C1Cc2cccc(O)c2C(=O)O1` (stereo not drawn) [IIIa-1-19], the inhibition in vivo at 50 mg/kg stood at 66%. For `CCCC(=O)NC1CC(=O)OC1C(OC(=O)CCC)C(=O)NC(CC(C)C)C1Cc2cccc(OCc3ccco3)c2C(=O)O1` (stereo not drawn) [IIIa-6-11], the inhibition in vivo at 50 mg/kg was 33%.

`CC(C)CC(NC(=O)C(O)C1OC(=O)CC1NC(=O)C1CCCCC1=O)C1Cc2cccc(O)c2C(=O)O1` (stereo not drawn) [IIIa-1-33]: the inhibition in vivo at 50 mg/kg worked out at 66%.

Turning to `CC(=O)NC1CC(=O)OC1C(O)C(=O)NC(CC(C)C)C1Cc2cccc(OCC(C)C)c2C(=O)O1` (stereo not drawn) [IIIa-5-10], the inhibition in vivo at 50 mg/kg worked out at 44%. For the compound `CCOc1cccc2c1C(=O)OC(C(CC(C)C)NC(=O)C(O)C1OC(=O)CC1NC(=O)c1ccccc1)C2` (stereo not drawn) [IIIa-5-16], the inhibition in vivo at 50 mg/kg turned out to be 33%.

Turning to `Cc1ccc(N=C(NC(CC(C)C)C2Cc3cccc(O)c3C(=O)O2)C(O)C(O)C(N)CC(=O)O)cc1` (stereo not drawn) [Vb-1-42], the inhibition in vivo at 50 mg/kg turned out to be 83%.

Consider `CC(C)CC(NC(=N)C(OC(=O)CCC1CCCC1)C(O)C(N)CC(=O)O)C1Cc2cccc(O)c2C(=O)O1` (stereo not drawn) [Vb-2-2], for which the inhibition in vivo at 50 mg/kg worked out at 56%.

For the compound `CCOc1cccc2c1C(=O)OC(C(CC(C)C)NC(=O)C(O)C1OC(=O)CC1NC(=O)C=C(C)C)C2` (stereo not drawn) [IIIa-5-78], the inhibition in vivo at 50 mg/kg stood at 44%. In the case of `CCCC=Cc1ccc(CN=C(NC(CC(C)C)C2Cc3cccc(O)c3C(=O)O2)C(O)C(O)C(N)CC(=O)O)cc1` (stereo not drawn) [Vb-1-40], the inhibition in vivo at 50 mg/kg was found to be 89%. With `CCNC1CC(=O)OC1C(O)C(=O)NC(CC(C)C)C1Cc2cccc(OC(=O)CC)c2C(=O)O1` (stereo not drawn) [IIIa-21-9], the inhibition in vivo at 50 mg/kg is 66%. Same read-out and setting: the figure for `CC(C)CC(NC(=O)C(O)C1C=CC(=O)O1)C1Cc2cccc(OCCC3CCCCO3)c2C(=O)O1` (stereo not drawn) [IVa-4-15] is 44%; for `CC(C)CC(NC(=O)C(O)C1OC(=O)CC1N)C1Cc2cccc(OCCCl)c2C(=O)O1` (stereo not drawn) [IIIa-13-6] it is 94%; for `CC(C)CC(NC(=O)C(O)C1OC(=O)CC1NC(=O)C1CCCO1)C1Cc2cccc(O)c2C(=O)O1` (stereo not drawn) [IIIa-1-23] it is 66%. For `CC(=O)OC(C(=O)NC(CC(C)C)C1Cc2cccc(O)c2C(=O)O1)C1OC(=O)CC1NC(=O)CC(C)C` (stereo not drawn) [IIIa-2-3], the inhibition in vivo at 50 mg/kg is 44%.

The same assay, now with this note: rat, in vivo.
Take `CC(C)CC(NC(=N)C(O)C(O)C(N)CC(=O)O)C1Cc2cccc(O)c2C(=O)O1` (stereo not drawn) [AI-77-A]: the “anti-ulcer activity (in words)” value is recorded as “high anti-ulcer activity”.
